Legend:
human TLR7 = human TLR7 (Homo sapiens (Human), UniProt Q9NYK1); test: HEK293-Blue-hTLR-7 cells assay; type: cell-based; conditions: HEK293-Blue-hTLR7 cells, R848 stimulation, 20 hrs, SEAP reporter; read-out: HEK/hTLR7 IC50
Source text: (§1) A stable HEK293-Blue-hTLR-7 cell line was purchased from InvivoGen (Cat. #: hkb-htlr7, San Diego, Calif., USA). These cells were originally designed for studying the stimulation of human TLR7 by monitoring the activation of NF-κB. A SEAP (secreted embryonic alkaline phosphatase) reporter gene was placed under the control of the IFN-β minimal promoter fused to five NF-κB and AP-1-binding sites. The SEAP was induced by activating NF-κB and AP-1 via stimulating HEK-Blue hTLR7 cells with TLR7 ligands. Therefore the reporter expression was declined by TLR7 antagonist under the stimulation of a ligand, such as R848 (Resiquimod), for incubation of 20 hrs. The cell culture supernatant SEAP reporter activity was determined using QUANTI-Blue™ kit (Cat. #: rep-qb1, Invivogen, San Diego, Ca, USA) at a wavelength of 640 nm, a detection medium that turns purple or blue in the presence of alkaline phosphatase.
(§2) HEK293-Blue-hTLR7 cells were incubated at a density of 250,000˜450,000 cells/mL in a volume of 170 μL in a 96-well plate in Dulbecco's Modified Eagle's medium (DMEM) containing 4.5 g/L glucose, 50 U/mL penicillin, […], […], 2 mM L-glutamine, 10% (v/v) heat-inactivated fetal bovine serum with addition of 20 μL test compound in a serial dilution in the presence of final DMSO at 1% and 10 μL of 20 uM R848 in above DMEM, perform incubation under 37° C. in a CO2 incubator for 20 hrs. Then 20 μL of the supernatant from each well was incubated with 180 μL Quanti-blue substrate solution at 37° C. for 2 hrs and the absorbance was read at 620-655 nm using a spectrophotometer. The signaling pathway that TLR7 activation leads to downstream NF-κB activation has been widely accepted, and therefore similar reporter assay was modified for evaluating TLR7 antagonist.

TLR9 = TLR9 (Homo sapiens (Human), UniProt Q9NR96); test: HEK293-Blue-hTLR-9 cells assay; type: cell-based; conditions: HEK293-Blue-hTLR9 cells, ODN2006 stimulation, 20 hrs, SEAP reporter; read-out: HEK/hTLR9 IC50
Source text: as §1, with “HEK293-Blue-hTLR-9” for “HEK293-Blue-hTLR-7”, “hkb-htlr9,” for “hkb-htlr7,”, “TLR9” for “TLR7”, “hTLR9” for “hTLR7”, “ODN2006 (Cat. #: tlr1-2006-1, Invivogen, San Diego, Calif., USA),” for “R848 (Resiquimod),”, “Calif.,” for “Ca,”
HEK293-Blue-hTLR9 cells were incubated at a density of 250,000˜450,000 cells/mL in a volume of 170 μL in a 96-well plate in Dulbecco's Modified Eagle's medium (DMEM) containing 4.5 g/L glucose, 50 U/mL penicillin, […], 2 mM L-glutamine, 10% (v/v) heat-inactivated fetal bovine serum with addition of 20 μL test compound in a serial dilution in the presence of final DMSO at 1% and 10 μL, of 20 uM ODN2006 in above DMEM, perform incubation under 37° C. in a CO2 incubator for 20 hrs. Then 20 μL of the supernatant from each well was incubated with 180 μL, Quanti-blue substrate solution at 37° C. for 2 h and the absorbance was read at 620655 nm using a spectrophotometer. The signaling pathway that TLR9 activation leads to downstream NF-κB activation has been widely accepted, and therefore similar reporter assay was modified for evaluating TLR9 antagonist.

human TLR8 = human TLR8 (Homo sapiens (Human), UniProt Q9NR97); test: HEK293-Blue-hTLR-8 cells assay; type: cell-based; conditions: HEK293-Blue-hTLR8 cells, R848 stimulation, 20 hrs, SEAP reporter; read-out: HEK/hTLR8 IC50
Source text: as §1, with “HEK293-Blue-hTLR-8” for “HEK293-Blue-hTLR-7”, “hkb-htlr8,” for “hkb-htlr7,”, “TLR8” for “TLR7”, “hTLR8” for “hTLR7”, “R848,” for “R848 (Resiquimod),”, “rep-gb1,” for “rep-qb1,”
as §2, with “HEK293-Blue-hTLR8 cells were” for “HEK293-Blue-hTLR7 cells were”, “μL of 60 uM R848” for “μL of 20 uM R848”, “read at 620655 nm using” for “read at 620-655 nm using”, “pathway that TLR8 activation leads” for “pathway that TLR7 activation leads”, “for evaluating TLR8 antagonist.” for “for evaluating TLR7 antagonist.”

[1] = Human microsome stability assay; type: in vitro ADME; conditions: human liver microsomes, 1 μM test compound, 37° C., NADPH regenerating system
Procedure: The human microsomal stability assay is used for early assessment of metabolic stability of a test compound in human liver microsomes.
Human liver microsomes (Cat. NO.: 452117, Corning, USA; Cat. NO.: H2610, Xenotech, USA) were preincubated with test compound for 10 minutes at 37° C. in 100 mM potassium phosphate buffer, pH 7.4. The reactions were initiated by adding NADPH regenerating system. The final incubation mixtures contained 1 μM test compound, 0.5 mg/mL liver microsomal protein, 1 mM MgCl2, 1 mM NADP, 1 unit/mL isocitric dehydrogenase and 6 mM isocitric acid in 100 mM potassium phosphate buffer, pH 7.4. After incubation times of 0, 3, 6, 9, 15 and 30 minutes at 37° C., 300 μL of cold acetonitrile (including internal standard) was added to 100 μL incubation mixture to terminate the reaction. Following precipitation and centrifugation, the amount of compound remaining in the samples were determined by LC-MS/MS. Controls of no NADPH regenerating system at zero and 30 minutes were also prepared and analyzed.

TLR9, sequence (Q9NR96 26-1032): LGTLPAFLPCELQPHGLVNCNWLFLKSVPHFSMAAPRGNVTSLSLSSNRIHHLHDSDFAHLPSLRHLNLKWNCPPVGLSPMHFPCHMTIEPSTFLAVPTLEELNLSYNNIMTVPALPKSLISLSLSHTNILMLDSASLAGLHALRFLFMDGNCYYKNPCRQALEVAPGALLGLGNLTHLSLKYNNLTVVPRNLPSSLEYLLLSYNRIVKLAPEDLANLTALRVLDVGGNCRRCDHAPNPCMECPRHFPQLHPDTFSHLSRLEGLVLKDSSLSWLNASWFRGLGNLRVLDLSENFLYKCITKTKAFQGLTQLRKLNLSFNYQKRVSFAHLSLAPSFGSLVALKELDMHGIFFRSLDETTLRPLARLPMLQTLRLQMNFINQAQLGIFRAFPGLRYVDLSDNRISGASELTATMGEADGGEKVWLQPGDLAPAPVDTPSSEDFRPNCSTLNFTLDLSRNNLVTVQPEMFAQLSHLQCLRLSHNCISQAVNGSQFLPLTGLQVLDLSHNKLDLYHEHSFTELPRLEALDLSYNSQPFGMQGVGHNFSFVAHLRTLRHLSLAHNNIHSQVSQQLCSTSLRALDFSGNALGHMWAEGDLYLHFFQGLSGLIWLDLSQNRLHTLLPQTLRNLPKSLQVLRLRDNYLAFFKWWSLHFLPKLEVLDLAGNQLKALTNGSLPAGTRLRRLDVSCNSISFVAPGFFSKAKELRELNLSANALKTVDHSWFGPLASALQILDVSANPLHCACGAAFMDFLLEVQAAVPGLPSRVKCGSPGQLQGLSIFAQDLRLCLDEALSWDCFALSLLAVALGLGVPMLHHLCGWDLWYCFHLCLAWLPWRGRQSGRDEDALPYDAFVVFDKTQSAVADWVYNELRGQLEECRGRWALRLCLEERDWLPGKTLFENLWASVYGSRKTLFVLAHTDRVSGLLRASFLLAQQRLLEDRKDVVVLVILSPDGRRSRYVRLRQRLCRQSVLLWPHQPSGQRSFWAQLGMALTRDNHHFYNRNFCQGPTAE
human TLR7, sequence (Q9NYK1 27-1049): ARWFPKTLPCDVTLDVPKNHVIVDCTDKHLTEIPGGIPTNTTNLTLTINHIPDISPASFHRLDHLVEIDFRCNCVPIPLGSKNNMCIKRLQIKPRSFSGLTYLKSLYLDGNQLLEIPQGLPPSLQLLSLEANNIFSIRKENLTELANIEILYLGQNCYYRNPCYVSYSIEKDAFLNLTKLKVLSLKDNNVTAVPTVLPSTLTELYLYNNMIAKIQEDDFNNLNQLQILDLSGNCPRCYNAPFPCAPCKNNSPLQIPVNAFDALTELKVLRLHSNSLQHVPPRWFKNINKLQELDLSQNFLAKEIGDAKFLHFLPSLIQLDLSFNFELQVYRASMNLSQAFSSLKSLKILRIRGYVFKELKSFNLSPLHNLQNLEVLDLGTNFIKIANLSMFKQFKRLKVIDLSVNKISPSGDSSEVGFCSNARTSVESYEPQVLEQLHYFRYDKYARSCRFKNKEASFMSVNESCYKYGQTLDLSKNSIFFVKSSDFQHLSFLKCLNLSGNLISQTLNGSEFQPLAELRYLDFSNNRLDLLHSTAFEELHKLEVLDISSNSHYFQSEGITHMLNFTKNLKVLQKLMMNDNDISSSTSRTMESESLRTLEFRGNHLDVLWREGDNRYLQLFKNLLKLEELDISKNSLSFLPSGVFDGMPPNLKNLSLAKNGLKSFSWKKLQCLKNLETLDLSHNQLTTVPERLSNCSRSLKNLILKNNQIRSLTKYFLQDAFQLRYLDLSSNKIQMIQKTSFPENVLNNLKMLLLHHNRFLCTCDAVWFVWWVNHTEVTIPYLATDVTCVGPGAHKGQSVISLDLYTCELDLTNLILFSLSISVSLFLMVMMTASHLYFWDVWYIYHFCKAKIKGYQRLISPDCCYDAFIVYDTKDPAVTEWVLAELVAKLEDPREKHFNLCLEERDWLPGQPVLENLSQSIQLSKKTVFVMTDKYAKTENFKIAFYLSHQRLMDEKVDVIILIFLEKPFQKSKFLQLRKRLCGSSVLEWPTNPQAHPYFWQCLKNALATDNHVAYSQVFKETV
human TLR8, sequence (Q9NR97 27-1041): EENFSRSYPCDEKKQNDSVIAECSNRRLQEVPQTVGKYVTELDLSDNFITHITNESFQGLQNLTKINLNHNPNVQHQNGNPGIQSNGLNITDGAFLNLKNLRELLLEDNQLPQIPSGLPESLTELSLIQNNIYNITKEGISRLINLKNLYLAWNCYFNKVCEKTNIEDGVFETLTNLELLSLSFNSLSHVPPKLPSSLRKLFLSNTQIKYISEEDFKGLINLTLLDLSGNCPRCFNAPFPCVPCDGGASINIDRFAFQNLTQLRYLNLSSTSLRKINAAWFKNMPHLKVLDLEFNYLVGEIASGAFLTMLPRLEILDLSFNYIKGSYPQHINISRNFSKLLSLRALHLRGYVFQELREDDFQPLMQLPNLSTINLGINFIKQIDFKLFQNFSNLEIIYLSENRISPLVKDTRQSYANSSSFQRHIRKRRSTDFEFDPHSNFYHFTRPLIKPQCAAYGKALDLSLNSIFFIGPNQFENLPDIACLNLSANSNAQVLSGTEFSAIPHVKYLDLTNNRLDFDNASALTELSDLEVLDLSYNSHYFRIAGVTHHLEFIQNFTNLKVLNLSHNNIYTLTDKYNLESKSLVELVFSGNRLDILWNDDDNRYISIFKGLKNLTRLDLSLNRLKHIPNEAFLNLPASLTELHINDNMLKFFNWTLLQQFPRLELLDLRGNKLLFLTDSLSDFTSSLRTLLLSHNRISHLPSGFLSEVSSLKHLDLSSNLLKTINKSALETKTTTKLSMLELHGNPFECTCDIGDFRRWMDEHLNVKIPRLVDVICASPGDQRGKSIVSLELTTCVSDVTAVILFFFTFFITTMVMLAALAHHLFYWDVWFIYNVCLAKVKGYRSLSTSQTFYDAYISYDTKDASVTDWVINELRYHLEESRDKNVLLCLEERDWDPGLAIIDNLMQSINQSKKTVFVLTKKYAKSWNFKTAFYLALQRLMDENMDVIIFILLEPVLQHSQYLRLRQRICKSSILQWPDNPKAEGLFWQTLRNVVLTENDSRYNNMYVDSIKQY

IC50 (human TLR7)	IC50 (TLR9)	IC50 (human TLR8)	Clearance of Human microsome [1]	Structure (SMILES)
0.0153 µM	0.159 µM	0.0013 µM	–	CCc1nc(N2CCC(N3CC4(CNCCO4)C3)CC2)ncc1-c1cc(C)c2nccn2c1 [Example 28, 2-[1-[4-ethyl-5-(8-methylimidazo[1,2-a]pyridin-6-yl)pyrimidin-2-yl]-4-piperidyl]-5-oxa-2,8-diazaspiro[3.5]nonane]
0.0033 µM	0.259 µM	0.0046 µM	0.465 L/h/kg	CCc1nc(N2CCC(N3CCNCC3)CC2)ncc1-c1cc(C)c2nccn2c1 [Example 27, 6-[4-ethyl-2-(4-piperazin-1-yl-1-piperidyl)pyrimidin-5-yl]-8-methyl-imidazo[1,2-a]pyridine]
0.0136 µM	0.269 µM	0.027 µM	–	Cc1cn2cc(-c3ccc(N4CCC5(CC4)COCCN5)nc3C(C)C)cc(C)c2n1 [Example 6, 9-[5-(2,8-dimethylimidazo[1,2-a]pyridin-6-yl)-6-isopropyl-2-pyridyl]-4-oxa-1,9-diazaspiro[5.5]undecane]
0.0435 µM	0.131 µM	0.0013 µM	–	CCc1nc(N2CCN(c3ncc4c(n3)CNCC4)CC2)ccc1-c1cc(C)c2nc(C)cn2c1 [Example 19, 2-[4-[5-(2,8-dimethylimidazo[1,2-a]pyridin-6-yl)-6-ethyl-2-pyridyl]piperazin-1-yl]-5,6,7,8-tetrahydropyrido[3,4-d]pyrimidine]
0.0074 µM	0.293 µM	0.0284 µM	0.55 L/h/kg	COc1cc(-c2ccc(N3CCC4(CCNCC4)CC3)nc2C(F)F)cn2ccnc12 [Example 13, 3-[6-(difluoromethyl)-5-(8-methoxyimidazo[1,2-a]pyridin-6-yl)-2-pyridyl]-3,9-diazaspiro[5.5]undecane]
0.0014 µM	0.292 µM	0.0013 µM	0.544 L/h/kg	Cc1cc(-c2ccc(N3CCC(N)CC3)nc2C(C)C)cn2ccnc12 [Example 1, 1-[6-isopropyl-5-(8-methylimidazo[1,2-a]pyridin-6-yl)-2-pyridyl]piperidin-4-amine]
0.0224 µM	0.255 µM	0.0288 µM	–	CCc1nc(N2CCN(C(=O)C3CNCCO3)CC2)ccc1-c1cc(C)c2nc(C)cn2c1 (centres unmarked) [Example 18, [4-[5-(2,8-dimethylimidazo[1,2-a]pyridin-6-yl)-6-ethyl-2-pyridyl]piperazin-1-yl]-morpholin-2-yl-methanone]
0.0062 µM	0.111 µM	0.0157 µM	0.572 L/h/kg	CCc1nc(N2CCC(N3CC4(CNCCO4)C3)CC2)ccc1-c1cc(C)c2nc(C)cn2c1 [Example 16, 2-[1-[5-(2,8-dimethylimidazo[1,2-a]pyridin-6-yl)-6-ethyl-2-pyridyl]-4-piperidyl]-5-oxa-2,8-diazaspiro[3.5]nonane]
0.0074 µM	0.229 µM	0.001 µM	0.521 L/h/kg	CCc1nc(N2CCC(N3C[C@@H](N)[C@H](OC)C3)CC2)ncc1-c1cc(C)c2nccn2c1 [Example 26, (3R,4R)-1-[1-[4-ethyl-5-(8-methylimidazo[1,2-a]pyridin-6-yl)pyrimidin-2-yl]-4-piperidyl]-4-methoxy-pyrrolidin-3-amine]
0.0064 µM	0.118 µM	0.0081 µM	–	Cc1cc(-c2ccc(N3CCC(N4CCNCC4)CC3)nc2N(C)C)cn2ccnc12 [Example 23, N,N-dimethyl-3-(8-methylimidazo[1,2-a]pyridin-6-yl)-6-(4-piperazin-1-yl-1-piperidyl)pyridin-2-amine]
0.0201 µM	0.107 µM	0.004 µM	–	CO[C@@H]1CN(C2CCN(c3ccc(-c4cc(C)c5nccn5c4)c(N(C)C)n3)CC2)C[C@H]1N [Example 24, 6-[4-[(3R,4R)-3-amino-4-methoxy-pyrrolidin-1-yl]-1-piperidyl]-N,N-dimethyl-3-(8-methylimidazo[1,2-a]pyridin-6-yl)pyridin-2-amine]

— patent publication US20230279001A1, “IMIDAZO[1,2-A]PYRIDINE COMPOUNDS FOR THE TREATMENT OF AUTOIMMUNE DISEASE” (Hoffmann-La Roche Inc., priority 2020, published 2023)
